Source: patent publication US12478602B2, “Method for treating a disorder” (priority 2023, dated 2025)
Read-outs that look alike come from different tables or passages of the source.

Columns and labels:
[1] = test system: mice having autism spectrum disorder; assay: Sociality experiment (three-chamber) in mouse model of autism spectrum disorder; format: in vivo; conditions: 500 mg/kg orally once a day for 2 weeks from age 3 weeks
Text: (§1) Pregnant C57BL/6 mice were subcutaneously injected with valproic acid (VPA) at the time when the gestation period reached 12 days. Male mice were selected from the mice that were born from the pregnant mice that were subcutaneously injected with VPA, and these were used as animals for a mouse model of autism spectrum disorder.
(§2) Since 3-week-old mice are at the critical stage, 3-week-old normal mice and 3-week-old mice having autism spectrum disorder were subjected to a sociality experiment, a social cognition experiment, and an anxiety experiment to identify the underlying features. 500 mg/kg of L-serine (hereinafter, referred to as AST-001) was orally administered for 2 weeks to mice having autism spectrum disorder, in which the underlying features had been confirmed. The mice having autism spectrum disorder, to which AST-001 had been orally administered for 2 weeks, were again subjected to a sociality experiment, a social cognition experiment, and an anxiety experiment.
A behavioral experiment, which checks whether or not an experimental mouse moves in the direction of a social object in a case where a social object (a non-familiar mouse) and a non-social object (an empty cage) are placed in both side rooms of a three-chamber having three connected rooms, was carried out (see FIG. 1A). […]

[2] = test system: mice having autism spectrum disorder; assay: Social cognition experiment in mouse model of autism spectrum disorder; format: in vivo; conditions: 500 mg/kg orally once a day for 2 weeks from age 3 weeks
Text: as §1, §2
A social cognition experiment, which measures whether or not an experimental mouse moves in the direction of a non-familiar mouse in a case where the experimental mouse is placed between a non-familiar mouse and a familiar mouse, was carried out (see FIG. 1B). […]

[3] = test system: mPFC pyramidal neurons; assay: Patch clamp of intrinsic excitability in BTBR mice; format: in vivo, mouse; conditions: 500 mg/kg orally for 2 weeks
Method: BTBR T+tf/J (BTBR), which is an animal of autism spectrum disorder, and C57BL/6 mice (used as a control group) were purchased from Jackson Laboratories. […] However, in a case where BTBR mice were orally administered with 500 mg/kg of AST-001 for 2 weeks, and then the firing rate of the action potential was measured, the firing rate of the action potential in the BTBR mice and the control group mice turned out to be similar (see FIG. 5B).

[4] = test system: mice having autism spectrum disorder; assay: Individual recognition (novel object recognition, NOR) experiment; format: in vivo, mouse; conditions: 180, 300, 480 or 600 mg/kg/day orally for 21 days; with increasing dosage
Method: Mice having autism spectrum disorder were created by the same method as in Example 1.1. The 3-week-old male mice having autism spectrum disorder were orally injected with 180, 300, 480, or 600 mg/kg/day of L-serine for 21 days and then subjected to an individual recognition test. Eight mice were used for each experimental group. Mice tend to be more interested in a novel object than a familiar object. Therefore, a novel object recognition (NOR) experiment, which is an experiment for checking whether or not mice recognize a novel object, was carried out.

[5] = Pharmacokinetic experiment in healthy adult males; format: in vivo, human; conditions: for AUC(0-t): read-out: average AUClast of L-serine without baseline correction
Method: (§3) 24 hours before the administration with AST-001 (main component: L-serine), blood was collected to measure the concentration of L-serine. 60 g of an AST-001 powder is a white homogeneous powder without having foreign substances, divided and repackaged into an HDPE bottle or a bottle made of the same material, and the composition of this drug is such that 1,000 mg of the main component L-serine is comprised per 1,000 mg dose. [table]

[6] = test system: healthy adults; assay: Safety evaluation in healthy adults; format: in vivo, human; conditions: single oral up to 30 g per day; 15 g twice a day for 7 days
Method: as §3, with “[…] As a result, it was confirmed that AST-001 can be safely administered within a dose range of 10 to 30 g per day for indications that require repeated administration. The results of the pharmacokinetic analysis in the AST-001 repeated administration test in healthy adult males are as shown in Table 2 below.” for “[table]”

[7] = test system: pediatric patients having autism spectrum disorder; conditions: human, in vivo
[8] = test system: pediatric patients having autism spectrum disorder; assay: Clinical trial of 52-week continuous administration, safety

N[C@@H](CO)C(=O)O [AST-001, L-serine]
interaction time with the social object vs interaction time with the empty cage [1]: significantly higher
preference index for the social object [1]: high
interaction time with the non-familiar mouse vs interaction time with the familiar mouse [2]: significantly higher
preference index for the non-familiar mouse [2]: high
firing rate of the action potential, BTBR mice vs control group mice [3]: similar
discrimination index (DI) [4]: increased
CLss/F ([5]; 15 g twice a day for 7 days, N = 7, mean ± SD): 21.97 ± 5.99 L/h
AUC ([5]; male, human, blood, oral, 15 g, 15 g twice a day for 1 week, steady state, read-out: average AUCtau of L-serine without baseline correction): ~883 µg·h/mL
AUC ([5]; male, human, blood, oral, 15 g, 15 g twice a day for 7 days, N = 7, mean ± SD, read-out: AUCtau, ss): 729 ± 202 µg·h/mL
Cmax ([5]; male, human, blood, oral, 15 g twice a day for 7 days, N = 7, mean ± SD): 212 ± 56.2 µg/mL
Vd/F ([5]; male, human, blood, oral, 15 g twice a day for 7 days, N = 7, mean ± SD, read-out: Vz/F): 348 ± 220 L
half-life ([5]; male, human, blood, oral, 15 g twice a day for 7 days, N = 7, mean ± SD, read-out: t1/2 (converted)): 11 ± 5.17 h
Tmax ([5]; male, human, blood, oral, 15 g twice a day for 7 days, N = 7, median value): 1 h
half-life ([5]; male, human, blood, oral, read-out: average half-life of extrinsically administered L-serine): 6.5 to 14 h
AUC(0-t) ([5]; male, human, blood, oral, single administration 10 g): 613 µg·h/mL
AUC(0-t) ([5]; male, human, blood, oral, single administration 20 g): 1130 µg·h/mL
AUC(0-t) ([5]; male, human, blood, oral, single administration 30 g): 1530 µg·h/mL
half-life ([5]; male, human, blood, po, 15 g orally twice a day for 7 days, steady state, read-out: average half-life (converted)): ~11 h
Cmax, AUClast, and AUCinf with increasing dosage ([5]; single oral 10 g, 15 g, 20 g or 30 g): linearly increased
average accumulation index ([5]; steady state vs single administration with 15 g): about 1.7 times
safety and drug tolerance [6]: excellent safety and drug tolerance
Adverse event [TEAE], Events [7]: 41
serious adverse events and deaths evaluated to be related ([8]; 52-week continuous administration): no serious adverse events and no deaths
COVID-19 infection adverse events ([8]; high dose group): 6 events
COVID-19 infection adverse events ([8]; low dose group): 5 events
